# Source: patent US4694069A, “Kibdelosporangium aridum SK&F-AAD-609” (SmithKline Beckman Corporation, priority 1985, dated 1987)
# Tests used:
# [1] = test system: rumen fermentation (strained rumen fluid); assay: Rumen in vitro model; parameters: species or system steer; conditions: for AAN (alpha amino nitrogen) / AMO (ammonia nitrogen) / LYS (lysine): 6 h; for % PR (percent propionate) / ACE (acetate) / BUT (butyrate) / ETOH (ethanol) / IBU (isobutyrate) / IVA (isovalerate) / PRO (propionate) / TOTAL (total volatile fatty acids) / VAL: 24 h
# Description: The AAD-609 antibiotics were characterized in a rumen in vitro model to assess their potential as feed additives for ruminants. […] Specifically, strained rumen fluid (10 ml) obtained from a fistulated steer receiving a roughage ration, was mixed with 10 ml of nutrient broth (20 mg casein hydrolysate, 100 mg maltose, 15 mg urea, 400 mg solka floc (cellulose), 100 mg cellobiose and 100 mg starch) and with a selected growth promotant and incubated at 39° C., with oscillation, for 24 hours. […] Measurement of AMO, LYS and AAN was done with a sample taken from the incubation flask after 6 hours.
# [2] = test system: mixed intestinal microflora (cecum fluid); assay: Swine in vitro model; conditions: one level, up to 166.67 ppm; 4-5 h
# Description: A swine in vitro model was used to characterize AAD-609 antibiotics as potential feed additives in swine and poultry. Mixed intestinal microflora were obtained from ileally-cannulated pigs. Virginiamycin, carbadox, AAD-216 and its components, and AAD-609 Complex (containing less than 5% AAD-216 antibiotics) were tested at one level. […] Glucose (GLU) was spared from microbial degradation. Volatile fatty acids (TOTAL) were the major end-product of microbial metabolism while lactic acid production were reduced. […] Since AAD-609 and AAD-216 give similar in vitro results, it is expected that AAD-609 has similar growth-promoting activity in monogastric animals. Also, the in vitro activity of AAD-609 is similar to the activity previously observed with bacitracin in this model.
# The swine in vitro model was carried out by incubating 1.5 ml of cecum fluid, from a swine fed normal rations, mixed with 1.5 ml of a nutrient broth (3 mg casein hydrolysate, 30 mg maltose, 1.25 mg urea, 0.5 mg lysine, and 30 mg cellobiose) and with up to 166.67 parts per million of a selected growth promotant at 39° C., with oscillation, for about 4-5 hours. Results, percentage of control, are reported in the following table in which all abbreviations are as above except that LLA means L-lactate and ETOH means ethanol.
molecule,measurement,setting,value
CNC1C(=O)NC2C(=O)NC(C(=O)NC3C(=O)NC4C(=O)NC(C(=O)NC(C(=O)O)c5cc(O)cc(OC6OC(CO)C(O)C(O)C6O)c5-c5cc4ccc5O)C(O)c4cc(Cl)c(c(Cl)c4)Oc4cc3cc(c4OC3OC(C(=O)O)C(O)C(O)C3NC(=O)CCCCCCCC(C)C)Oc3ccc(cc3Cl)C2O)c2cc(cc(O)c2Cl)Oc2cc1ccc2O (stereo not shown) [AAD-216 B],AAN (alpha amino nitrogen),[1]; 0.50 ppm,121 % of control
same,AMO (ammonia nitrogen),[1]; 0.50 ppm,96 % of control
same,LYS (lysine),[1]; 0.50 ppm,96 % of control
same,% PR (percent propionate),[1]; 0.50 ppm,104 % of control
same,ACE (acetate),[1]; 0.50 ppm,107 % of control
same,BUT (butyrate),[1]; 0.50 ppm,97 % of control
same,ETOH (ethanol),[1]; 0.50 ppm,0 % of control
same,IBU (isobutyrate),[1]; 0.50 ppm,108 % of control
same,IVA (isovalerate),[1]; 0.50 ppm,94 % of control
same,PRO (propionate),[1]; 0.50 ppm,108 % of control
same,TOTAL (total volatile fatty acids),[1]; 0.50 ppm,103 % of control
same,VAL,[1]; 0.50 ppm,101 % of control
same,AAN (alpha amino nitrogen),[1]; 5.00 ppm,140 % of control
same,AMO (ammonia nitrogen),[1]; 5.00 ppm,93 % of control
same,LYS (lysine),[1]; 5.00 ppm,120 % of control
same,% PR (percent propionate),[1]; 5.00 ppm,141 % of control
same,ACE (acetate),[1]; 5.00 ppm,106 % of control
same,BUT (butyrate),[1]; 5.00 ppm,88 % of control
same,ETOH (ethanol),[1]; 5.00 ppm,0 % of control
same,IBU (isobutyrate),[1]; 5.00 ppm,95 % of control
same,IVA (isovalerate),[1]; 5.00 ppm,67 % of control
same,PRO (propionate),[1]; 5.00 ppm,153 % of control
same,TOTAL (total volatile fatty acids),[1]; 5.00 ppm,108 % of control
same,VAL,[1]; 5.00 ppm,86 % of control
same,AAN (alpha amino nitrogen),[1]; 50.00 ppm,178 % of control
same,AMO (ammonia nitrogen),[1]; 50.00 ppm,107 % of control
same,LYS (lysine),[1]; 50.00 ppm,132 % of control
same,% PR (percent propionate),[1]; 50.00 ppm,144 % of control
same,ACE (acetate),[1]; 50.00 ppm,103 % of control
same,BUT (butyrate),[1]; 50.00 ppm,98 % of control
same,ETOH (ethanol),[1]; 50.00 ppm,0 % of control
same,IBU (isobutyrate),[1]; 50.00 ppm,123 % of control
same,IVA (isovalerate),[1]; 50.00 ppm,111 % of control
same,PRO (propionate),[1]; 50.00 ppm,159 % of control
same,TOTAL (total volatile fatty acids),[1]; 50.00 ppm,110 % of control
same,VAL,[1]; 50.00 ppm,28 % of control
same,% PR (percent propionate),[2],119 % of control
same,ACE (acetate),[2],217 % of control
same,BUT (butyrate),[2],154 % of control
same,ETOH (ethanol),[2],104 % of control
same,GLU (glucose),[2],180 % of control
same,IBU (isobutyrate),[2],0 % of control
same,IVA (isovalerate),[2],0 % of control
same,LLA (L-lactate),[2],2 % of control
same,LYS (lysine),[2],25 % of control
same,PRO (propionate),[2],305 % of control
same,TOTAL (total volatile fatty acids),[2],257 % of control
same,VAL,[2],0 % of control
"COC(=O)N/N=C/c1c[n+]([O-])c2ccccc2[n+]1[O-] [Carbadox, carbadox]",% PR (percent propionate),[2],38 % of control
same,ACE (acetate),[2],47 % of control
same,BUT (butyrate),[2],46 % of control
same,ETOH (ethanol),[2],62 % of control
same,GLU (glucose),[2],138 % of control
same,IBU (isobutyrate),[2],0 % of control
same,IVA (isovalerate),[2],0 % of control
same,LLA (L-lactate),[2],9 % of control
same,LYS (lysine),[2],79 % of control
same,PRO (propionate),[2],11 % of control
same,TOTAL (total volatile fatty acids),[2],30 % of control
same,VAL,[2],0 % of control
"CC[C@@]1([C@@H]2O[C@@H]([C@H]3O[C@@](O)(CO)[C@H](C)C[C@@H]3C)C[C@@H]2C)CC[C@H]([C@]2(C)CC[C@]3(C[C@H](O)[C@@H](C)[C@@H]([C@@H](C)[C@@H](OC)[C@H](C)C(=O)O)O3)O2)O1 [Monensin, monensin]",AAN (alpha amino nitrogen),[1]; 0.50 ppm,117 % of control
same,AMO (ammonia nitrogen),[1]; 0.50 ppm,103 % of control
same,LYS (lysine),[1]; 0.50 ppm,78 % of control
same,% PR (percent propionate),[1]; 0.50 ppm,131 % of control
same,ACE (acetate),[1]; 0.50 ppm,100 % of control
same,BUT (butyrate),[1]; 0.50 ppm,92 % of control
same,ETOH (ethanol),[1]; 0.50 ppm,0 % of control
same,IBU (isobutyrate),[1]; 0.50 ppm,112 % of control
same,IVA (isovalerate),[1]; 0.50 ppm,150 % of control
same,PRO (propionate),[1]; 0.50 ppm,141 % of control
same,TOTAL (total volatile fatty acids),[1]; 0.50 ppm,108 % of control
same,VAL,[1]; 0.50 ppm,100 % of control
same,AAN (alpha amino nitrogen),[1]; 5.00 ppm,185 % of control
same,AMO (ammonia nitrogen),[1]; 5.00 ppm,101 % of control
same,LYS (lysine),[1]; 5.00 ppm,144 % of control
same,% PR (percent propionate),[1]; 5.00 ppm,189 % of control
same,ACE (acetate),[1]; 5.00 ppm,101 % of control
same,BUT (butyrate),[1]; 5.00 ppm,61 % of control
same,ETOH (ethanol),[1]; 5.00 ppm,0 % of control
same,IBU (isobutyrate),[1]; 5.00 ppm,84 % of control
same,IVA (isovalerate),[1]; 5.00 ppm,103 % of control
same,PRO (propionate),[1]; 5.00 ppm,208 % of control
same,TOTAL (total volatile fatty acids),[1]; 5.00 ppm,110 % of control
same,AAN (alpha amino nitrogen),[1]; 50.00 ppm,248 % of control
same,AMO (ammonia nitrogen),[1]; 50.00 ppm,101 % of control
same,LYS (lysine),[1]; 50.00 ppm,186 % of control
same,ACE (acetate),[1]; 50.00 ppm,96 % of control
same,BUT (butyrate),[1]; 50.00 ppm,53 % of control
same,ETOH (ethanol),[1]; 50.00 ppm,0 % of control
same,IBU (isobutyrate),[1]; 50.00 ppm,123 % of control
same,IVA (isovalerate),[1]; 50.00 ppm,132 % of control
same,PRO (propionate),[1]; 50.00 ppm,258 % of control
same,TOTAL (total volatile fatty acids),[1]; 50.00 ppm,117 % of control
same,VAL,[1]; 50.00 ppm,81 % of control
avoparcin,AAN (alpha amino nitrogen),[1]; 0.50 ppm,99 % of control
same,AMO (ammonia nitrogen),[1]; 0.50 ppm,93 % of control
same,LYS (lysine),[1]; 0.50 ppm,120 % of control
same,% PR (percent propionate),[1]; 0.50 ppm,102 % of control
same,ACE (acetate),[1]; 0.50 ppm,100 % of control
same,BUT (butyrate),[1]; 0.50 ppm,103 % of control
same,ETOH (ethanol),[1]; 0.50 ppm,0 % of control
same,IBU (isobutyrate),[1]; 0.50 ppm,91 % of control
same,IVA (isovalerate),[1]; 0.50 ppm,97 % of control
same,PRO (propionate),[1]; 0.50 ppm,104 % of control
same,TOTAL (total volatile fatty acids),[1]; 0.50 ppm,102 % of control
same,VAL,[1]; 0.50 ppm,103 % of control
same,AAN (alpha amino nitrogen),[1]; 5.00 ppm,120 % of control
same,AMO (ammonia nitrogen),[1]; 5.00 ppm,97 % of control
same,LYS (lysine),[1]; 5.00 ppm,150 % of control
same,% PR (percent propionate),[1]; 5.00 ppm,123 % of control
same,ACE (acetate),[1]; 5.00 ppm,94 % of control
same,BUT (butyrate),[1]; 5.00 ppm,82 % of control
same,ETOH (ethanol),[1]; 5.00 ppm,0 % of control
same,IBU (isobutyrate),[1]; 5.00 ppm,103 % of control
same,IVA (isovalerate),[1]; 5.00 ppm,94 % of control
same,PRO (propionate),[1]; 5.00 ppm,116 % of control
same,TOTAL (total volatile fatty acids),[1]; 5.00 ppm,94 % of control
same,VAL,[1]; 5.00 ppm,73 % of control
same,AAN (alpha amino nitrogen),[1]; 50.00 ppm,182 % of control
same,AMO (ammonia nitrogen),[1]; 50.00 ppm,111 % of control
same,LYS (lysine),[1]; 50.00 ppm,114 % of control
same,% PR (percent propionate),[1]; 50.00 ppm,129 % of control
same,ACE (acetate),[1]; 50.00 ppm,98 % of control
same,BUT (butyrate),[1]; 50.00 ppm,90 % of control
same,ETOH (ethanol),[1]; 50.00 ppm,0 % of control
same,IBU (isobutyrate),[1]; 50.00 ppm,117 % of control
same,IVA (isovalerate),[1]; 50.00 ppm,90 % of control
same,PRO (propionate),[1]; 50.00 ppm,130 % of control
same,TOTAL (total volatile fatty acids),[1]; 50.00 ppm,101 % of control
same,VAL,[1]; 50.00 ppm,68 % of control
